Experimental data taken from publication PMC9866191, “Novel 9-Benzylaminoacridine Derivatives as Dual Inhibitors of Phosphodiesterase 5 and Topoisomerase II for the Treatment of Colon Cancer” (Molecules, 2023).

Tests used:
PDE5A = target: T1, PDE5A (Homo sapiens, UniProt O76074); assay: Phosphodiesterase 5 HTRF cGMP assay; format: biochemical; conditions: for IC50: means ± S.D. (n = 4), read-out: PDE5 IC50; for inhibition at 10 µM: read-out: PDE5 % Inhibition at 10 μM
T1 construct: purchased BPS Bioscience, San Diego, CA, USA
Description: All the synthesized acridine derivatives were tested for their in vitro ability to inhibit PDE5A at a screening dose of 10 µM.
The enzyme activities of phosphodiesterase 5 (PDE5) were measured using an HTRF cGMP assay kit (Cisbio, Codolet, France). […] Afterward, the HTRF reagent (cGMP-d2 and anti-cGMP-cryptate) was added for 1 h at 25 °C, and PDE activity was assayed on an HTRF reader (Tecan Infinite F200 Pro).

DU-145 = assay: NCI-60 one-dose screen; format: cell-based; conditions: Homo sapiens; DU-145, Prostate Cancer panel; single dose 10^−5 M; read-out: Growth inhibition %
Description: (§1) The newly synthesized compounds were screened for their in vitro anticancer activity at the Developmental Therapeutic Program (DTP) of the National Cancer Institute (NCI). The screening involved a panel of 60 human tumor cell lines consisting of 9 tissue types to screen for potential anti-cancer agents. The primary screening of submitted compounds was performed by testing a single dose (10^−5 M) in the full NCI-60 panel. The detailed % inhibition by the tested compounds against the 60 cell lines is shown in Tables S1–S3 in the Supporting Information.

K-562 = assay: NCI-60 one-dose screen; format: cell-based; conditions: Homo sapiens, K562; K-562, Leukemia panel; single dose 10^−5 M; read-out: Growth inhibition %
Description: as §1

SNB-75 = assay: NCI-60 one-dose screen; format: cell-based; conditions: Homo sapiens; SNB-75, CNS Cancer panel; single dose 10^−5 M; read-out: Growth inhibition %
Description: as §1

SK-MEL-28 = assay: NCI-60 one-dose screen; format: cell-based; conditions: Homo sapiens; SK-MEL-28, Melanoma panel; single dose 10^−5 M; read-out: Growth inhibition %
Description: as §1

HCT-15 = assay: NCI-60 one-dose screen; format: cell-based; conditions: Homo sapiens; HCT-15, Colon Cancer panel; single dose 10^−5 M; read-out: Growth inhibition %
Description: as §1

HT29 = assay: NCI-60 one-dose screen; format: cell-based; conditions: Homo sapiens, HT-29; HT29, Colon Cancer panel; single dose 10^−5 M; read-out: Growth inhibition %
Description: as §1

KM12 = assay: NCI-60 one-dose screen; format: cell-based; conditions: Homo sapiens; KM12, Colon Cancer panel; single dose 10^−5 M; read-out: Growth inhibition %
Description: as §1

MOLT-4 = assay: NCI-60 one-dose screen; format: cell-based; conditions: Homo sapiens; MOLT-4, Leukemia panel; single dose 10^−5 M; read-out: Growth inhibition %
Description: as §1

SK-MEL-5 = assay: NCI-60 one-dose screen; format: cell-based; conditions: Homo sapiens; SK-MEL-5, Melanoma panel; single dose 10^−5 M; read-out: Growth inhibition %
Description: as §1

ACHN = assay: NCI-60 one-dose screen; format: cell-based; conditions: Homo sapiens, Renal Cancer panel, single dose 10^−5 M, read-out: Growth inhibition %
Description: as §1

CAKI-1 = assay: NCI-60 one-dose screen; format: cell-based; conditions: Homo sapiens; CAKI-1, Renal Cancer panel; single dose 10^−5 M; read-out: Growth inhibition %
Description: as §1

BT-549 = assay: NCI-60 one-dose screen; format: cell-based; conditions: Homo sapiens; BT-549, Breast Cancer panel; single dose 10^−5 M; read-out: Growth inhibition %
Description: as §1

MDA-MB-435 = assay: NCI-60 one-dose screen; format: cell-based; conditions: Homo sapiens; MDA-MB-435, Melanoma panel; single dose 10^−5 M; read-out: Growth inhibition %
Description: as §1

NCI-H226 = assay: NCI-60 one-dose screen; format: cell-based; conditions: Homo sapiens; NCI-H226, Non-small cell lung panel; single dose 10^−5 M; read-out: Growth inhibition %
Description: as §1

COLO 205 = assay: NCI-60 one-dose screen; format: cell-based; conditions: Homo sapiens; COLO 205, Colon Cancer panel; single dose 10^−5 M; read-out: Growth inhibition %
Description: as §1

OVCAR-3 = assay: NCI-60 one-dose screen; format: cell-based; conditions: Homo sapiens; OVCAR-3, Ovarian Cancer panel; single dose 10^−5 M; read-out: Growth inhibition %
Description: as §1

786-0 = assay: NCI-60 one-dose screen; format: cell-based; conditions: Homo sapiens; 786-0, Renal Cancer panel; single dose 10^−5 M; read-out: Growth inhibition %
Description: as §1

EKVX = assay: NCI-60 one-dose screen; format: cell-based; conditions: Homo sapiens, Non-small cell lung panel, single dose 10^−5 M, read-out: Growth inhibition %
Description: as §1

HS 578T = assay: NCI-60 one-dose screen; format: cell-based; conditions: Homo sapiens, Breast Cancer panel, single dose 10^−5 M, read-out: Growth inhibition %
Description: as §1

OVCAR-8 = assay: NCI-60 one-dose screen; format: cell-based; conditions: Homo sapiens; OVCAR-8, Ovarian Cancer panel; single dose 10^−5 M; read-out: Growth inhibition %
Description: as §1

SR = assay: NCI-60 one-dose screen; format: cell-based; conditions: Homo sapiens, Leukemia panel, single dose 10^−5 M, read-out: Growth inhibition %
Description: as §1

MDA-MB-231/ATCC = assay: NCI-60 one-dose screen; format: cell-based; conditions: Homo sapiens, Breast Cancer panel, single dose 10^−5 M, read-out: Growth inhibition %
Description: as §1

UO-31 = assay: NCI-60 one-dose screen; format: cell-based; conditions: Homo sapiens; UO-31, Renal Cancer panel; single dose 10^−5 M; read-out: Growth inhibition %
Description: as §1

SW-620 = assay: NCI-60 one-dose screen; format: cell-based; conditions: Homo sapiens; SW-620, Colon Cancer panel; single dose 10^−5 M; read-out: Growth inhibition %
Description: as §1

CCD-966SK = assay: MTT cell proliferation assay, CCD-966SK; conditions: CCD966SK skin fibroblast, 72 h MTT
SF-268 = assay: NCI-60 one-dose screen; format: cell-based; conditions: Homo sapiens; SF-268, CNS Cancer panel; single dose 10^−5 M; read-out: Growth inhibition %
HL-60(TB) = assay: NCI-60 one-dose screen; format: cell-based; conditions: Homo sapiens, Leukemia panel, single dose 10^−5 M, read-out: Growth inhibition %
Description: as §1

HCT-116 = assay: MTT cell proliferation assay, HCT-116; conditions: for % Inhibition at 10 µM: 72 h MTT, means ± SD; for IC50: read-out: IC50 μM, 72 h MTT, means ± SD, three experiments

| SMILES | IC50 (PDE5A) [µM] | inhibition at 10 µM (PDE5A) [%] | inhibition at 10 µM (DU-145) [%] | inhibition at 10 µM (K-562) [%] | inhibition at 10 µM (SNB-75) [%] | inhibition at 10 µM (SK-MEL-28) [%] | inhibition at 10 µM (HCT-15) [%] | inhibition at 10 µM (HT29) [%] | inhibition at 10 µM (KM12) [%] | inhibition at 10 µM (SK-MEL-5) [%] | inhibition at 10 µM (ACHN) [%] | inhibition at 10 µM (CAKI-1) [%] | inhibition at 10 µM (BT-549) [%] | inhibition at 10 µM (MDA-MB-435) [%] | inhibition at 10 µM (NCI-H226) [%] | inhibition at 10 µM (COLO 205) [%] | inhibition at 10 µM (OVCAR-3) [%] | inhibition at 10 µM (786-0) [%] | inhibition at 10 µM (EKVX) [%] | inhibition at 10 µM (HS 578T) [%] | other results |
| --- | --- | --- | --- | --- | --- | --- | --- | --- | --- | --- | --- | --- | --- | --- | --- | --- | --- | --- | --- | --- | --- |
| COc1cccc(CNc2c3ccccc3nc3ccccc23)c1OC [Compound 16, Acridin-9-yl-(2,3-dimethoxybenzyl)-amine] | > 10 | 36.7 ± 8.14 | 58.2 | 84.5 | 32 | 33.9 | 80.2 | 85.6 | 47.6 | 44.2 | 78.9 | 66.3 | 40.3 | 53.7 | 48.4 | 78.5 | 34.9 | 61.2 | 63.7 | 35.7 | inhibition at 10 µM (MOLT-4): 82.2%; inhibition at 10 µM (OVCAR-8): 60.8%; inhibition at 10 µM (SR): 82.5%; inhibition at 10 µM (MDA-MB-231/ATCC): 58.1%; inhibition at 10 µM (UO-31): 74.8%; inhibition at 10 µM (SW-620): 74.6%; % Inhibition at 10 µM (CCD-966SK): 29.78 ± 2.20%; inhibition at 10 µM (SF-268): 38.3% |
| Fc1ccc(CNc2c3ccccc3nc3ccccc23)cc1F [Compound 22, Acridin-9-yl-(3,4-difluorobenzyl)-amine] | > 10 | 36.2 ± 9.78 | 60.5 | 87.7 | 33.8 | 17.6 | 82 | 86.6 | 46.7 | 33.8 | 80.7 | 74.7 | 31.8 | 50.8 | 52.4 | 83.9 | 31.1 | 68.5 | 64.5 | 35.2 | inhibition at 10 µM (HL-60(TB)): 65.5%; inhibition at 10 µM (OVCAR-8): 67.9%; inhibition at 10 µM (SR): 83%; inhibition at 10 µM (MDA-MB-231/ATCC): 65.2%; inhibition at 10 µM (UO-31): 84.5%; inhibition at 10 µM (SW-620): 76.3%; % Inhibition at 10 µM (HCT-116): 56.92 ± 0.61%; IC50 (HCT-116): 6.99 ± 0.17 µM; % Inhibition at 10 µM (CCD-966SK): 37.49 ± 7.38%; inhibition at 10 µM (SF-268): 42.8% |
| Cc1ccc2nc3ccccc3c(NCc3ccccc3)c2c1 [Compound 30, Benzyl-(2-methylacridin-9-yl)-amine] | 4.52 ± 1.74 | 68.8 ± 7.05 | 64.2 | 89 | 35 | 22 | 82 | 88.4 | 43.7 | 41.2 | 76.8 | 64.5 | 31 | 41.8 | 50.2 | 91.9 | 34 | 65.7 | 50.4 | 30.2 | inhibition at 10 µM (HL-60(TB)): 59.4%; inhibition at 10 µM (OVCAR-8): 66.5%; inhibition at 10 µM (SR): 95.9%; inhibition at 10 µM (MDA-MB-231/ATCC): 64.2%; inhibition at 10 µM (UO-31): 81.7%; inhibition at 10 µM (SW-620): 75.7%; % Inhibition at 10 µM (HCT-116): 68.46 ± 1.55%; IC50 (HCT-116): 5.78 ± 0.11 µM; % Inhibition at 10 µM (CCD-966SK): 47.93 ± 1.06%; inhibition at 10 µM (SF-268): 31% |
| Cc1ccc2nc3ccccc3c(NCc3ccc(Cl)cc3)c2c1 [Compound 31, (4-Chlorobenzyl)-(2-methyl-acridin-9-yl)-amine] | 4.78 ± 1.48 | 65.7 ± 7.48 | 48.6 | 97.4 | 33.5 | 24.5 | 85.5 | 94.7 | 22.9 | 46 | 66.7 | 54.3 | 24.4 | 29.7 | 27.7 | 153 | 29.1 | 65.3 | 44.6 | 22.2 | inhibition at 10 µM (MOLT-4): 99.9%; inhibition at 10 µM (OVCAR-8): 47.6%; inhibition at 10 µM (SR): 109%; inhibition at 10 µM (MDA-MB-231/ATCC): 62.3%; inhibition at 10 µM (UO-31): 75.5%; inhibition at 10 µM (SW-620): 68%; % Inhibition at 10 µM (HCT-116): 55.53 ± 1.69%; IC50 (HCT-116): 7.95 ± 0.65 µM; % Inhibition at 10 µM (CCD-966SK): 60.02 ± 3.07%; IC50 (CCD-966SK; read-out: IC50 μM): 4.96 ± 0.62 µM; inhibition at 10 µM (SF-268): 20.9% |
